From US20060241083A1, “Novel heteroaryl phosphonates as cardioprotective agents” (Medicure International Inc., priority 2003, published 2006) come the findings set out here.

The test system of the test is Male Wistar rats. As to the kind of experiment: Ischemia reperfusion: infarct size after LAD occlusion (25 min) and reperfusion (2 h) in anesthetised rats. The class given is in vivo, rat. The note with it: 32 mg/kg i.v. bolus 5 min prior to ischemia; 25 min LAD occlusion, 2 h reperfusion; vs vehicle 56±3% of the AAR; P=0.047, unpaired Students t-test; FIG. 2. How it is done: Male Wistar rats (200-300 g, Tuck, Rayleigh, Essex, U.K.) were anesthetised with thiopentone sodium (Intraval®, 120 mg/kg i.p.; Rhone-Merrieux, Essex, U.K.). The rats were tracheotomised, intubated and ventilated with a Harvard ventilator (70 strokes/min, tidal volume: 8-10 mL/kg, inspiratory oxygen concentration: 30%). Body temperature was maintained at 38±1° C. The right carotid artery was cannulated and connected to a pressure transducer (MLT 1050, AD Instruments Ltd, Hastings, UK) to monitor mean arterial blood pressure (MAP) and heart rate (HR), which were continuously recorded on a data acquisition system such as Powerlab® Version 4.0.4, AD Instruments, Hastings, UK. The right jugular vein was cannulated for drug administration and the administration of Evans Blue dye (at the end of the experiment). A lateral thoracotomy was performed and the heart was suspended in a temporary pericardial cradle. A snare occluder was placed around the left anterior descending coronary artery (LAD). After completion of the surgical procedure the animals were allowed to stabilise for 30 min before LAD ligation. Five minutes prior to the onset of myocardial ischemia, a bolus injection (i.v.) of either vehicle or phosphonate was administered. The coronary artery was occluded at time 0 by tightening of the occluder. […]

For `Cc1nc(-c2ccccc2)c(C(F)P(=O)(O)O)c(CO)c1O` (stereo not shown) [Compound 38, [Fluoro-(5-hydroxy-4-hydroxymethyl-6-methyl-2-phenyl-pyridin-3-yl)-methyl]-phosphonic acid], the “myocardial infarct size (as a percentage of the weight of the AAR)” value was “reduced myocardial infarct size”.
